Results published in patent US9617226B2 (AbbVie Deutschland GmbH & Co. KG, priority 2014, dated 2017).

Columns and labels:
[1] = target: human vasopressin V1a receptor (Homo sapiens (Human), UniProt P37288); test: Vasopressin V1a receptor binding assay; details: selectivity quotient, human V1a vs human V1b
Procedure: The test substances were dissolved in a concentration of 5 mM M in DMSO. Further dilution of these DMSO solutions took place as described for V1b.
The membrane pellet was again homogenized in a High-Pressure-Homogenizer, Polytec 50K at 1500 PSI (Heinemann, Germany) and subsequently taken up in 50 mM Tris-HCl, pH 7.4, homogenized and stored in aliquots frozen in liquid nitrogen at −190° C.
The incubation buffer was: 50 mM Tris, 10 mM MgCl2, 0.1% BSA, pH 7.4.
Duplicate determinations were carried out.
After incubation (60 minutes at room temperature), the samples were processed as described for V1b.
The binding parameters were calculated by nonlinear regression in SAS.

[2] = target: human vasopressin V1b receptor (Homo sapiens (Human), UniProt P47901); test: biochemical
human vasopressin V1b receptor, sequence (P47901 whole entry): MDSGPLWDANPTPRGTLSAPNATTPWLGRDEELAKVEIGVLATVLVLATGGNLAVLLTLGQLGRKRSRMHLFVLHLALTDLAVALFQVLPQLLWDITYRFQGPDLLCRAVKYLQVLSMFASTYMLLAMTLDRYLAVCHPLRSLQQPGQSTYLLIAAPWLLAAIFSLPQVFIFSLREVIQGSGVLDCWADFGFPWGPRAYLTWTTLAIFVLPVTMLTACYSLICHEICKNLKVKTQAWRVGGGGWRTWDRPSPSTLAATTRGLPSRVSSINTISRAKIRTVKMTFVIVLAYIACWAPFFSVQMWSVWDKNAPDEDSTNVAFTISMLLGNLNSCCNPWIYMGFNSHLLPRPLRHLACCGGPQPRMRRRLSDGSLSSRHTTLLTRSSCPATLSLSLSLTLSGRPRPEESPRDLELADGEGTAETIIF

human vasopressin V1a receptor, sequence (P37288 whole entry): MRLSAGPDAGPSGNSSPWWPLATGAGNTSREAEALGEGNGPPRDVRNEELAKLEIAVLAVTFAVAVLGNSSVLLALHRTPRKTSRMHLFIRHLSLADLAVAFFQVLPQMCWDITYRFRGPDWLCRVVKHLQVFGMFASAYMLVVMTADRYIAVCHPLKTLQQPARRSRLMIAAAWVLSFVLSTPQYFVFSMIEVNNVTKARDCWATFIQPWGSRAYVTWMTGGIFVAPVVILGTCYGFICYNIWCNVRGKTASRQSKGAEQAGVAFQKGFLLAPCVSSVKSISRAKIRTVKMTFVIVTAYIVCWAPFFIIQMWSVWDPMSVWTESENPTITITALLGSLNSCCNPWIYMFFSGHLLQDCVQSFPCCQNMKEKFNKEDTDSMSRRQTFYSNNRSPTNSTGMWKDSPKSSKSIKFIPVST

SMILES | Ki(h-V1a)/Ki(h-V1b) [1] | Ki [2] [µM]
CC(C)NC(=O)Cn1c(-c2cccc(Cl)c2)nc2ccc([C@H]3C[C@@H](CN4CCC(C#N)CC4)C3)cc2c1=O [Example 7, Cis-2-[2-(3-Chlorophenyl)-6-[3-[(4-cyano-1-piperidyl)methyl]cyclobutyl]-4-oxo-quinazolin-3-yl]-N-isopropyl-acetamide] | +++ (>75) | 0.01 to 0.1
CC(C)NC(=O)Cn1c(-c2cccc(Cl)c2)nc2ccc([C@H]3C[C@@H](CN4C[C@@H](C)O[C@@H](C)C4)C3)cc2c1=O [Example 42, cis-2-[2-(3-Chlorophenyl)-6-[3-[[(2S,6R)-2,6-dimethylmorpholin-4-yl]methyl]cyclobutyl]-4-oxo-quinazolin-3-yl]-N-isopropyl-acetamide] | +++ (>75) | 0.001 to 0.01
CC(C)NC(=O)Cn1c(-c2cccc(Cl)c2)nc2ccc([C@H]3C[C@@H](CN4CC[C@@H](F)C4)C3)cc2c1=O [Example 11, cis-2-[2-(3-Chlorophenyl)-6-[3-[[(3R)-3-fluoropyrrolidin-1-yl]methyl]cyclobutyl]-4-oxo-quinazolin-3-yl]-N-isopropyl-acetamide] | +++ (>75) | 0.001 to 0.01
CC(C)NC(=O)Cn1c(-c2cccc(Cl)c2)nc2ccc([C@H]3C[C@@H](CN4CCOC[C@H]4C)C3)cc2c1=O [Example 44, cis-2-[2-(3-Chlorophenyl)-6-[3-[[(3R)-3-methylmorpholin-4-yl]methyl]cyclobutyl]-4-oxo-quinazolin-3-yl]-N-isopropyl-acetamide] | +++ (>75) | 0.001 to 0.01
COC1CN(C[C@H]2C[C@@H](c3ccc4nc(-c5cccc(Cl)c5)n(CC(=O)NC(C)C)c(=O)c4c3)C2)C1 [Example 35, cis-2-[2-(3-Chlorophenyl)-6-[3-[(3-methoxyazetidin-1-yl)methyl]cyclobutyl]-4-oxo-quinazolin-3-yl]-N-isopropyl-acetamide] | +++ (>75) | 0.01 to 0.1
CC(C)NC(=O)Cn1c(-c2cccc(Cl)c2)nc2ccc([C@H]3C[C@@H](CN4CC[C@H](C)C4)C3)cc2c1=O [Example 24, cis-2-[2-(3-Chlorophenyl)-6-[3-[[(3S)-3-methylpyrrolidin-1-yl]methyl]cyclobutyl]-4-oxo-quinazolin-3-yl]-N-isopropyl-acetamide] | +++ (>75) | 0.01 to 0.1
CC(C)NC(=O)Cn1c(-c2cccc(Cl)c2)nc2ccc([C@H]3C[C@@H](CN4CCCC(C#N)C4)C3)cc2c1=O (relative stereo) [Example 14, cis-2-[2-(3-Chlorophenyl)-6-[3-[(3-cyano-1-piperidyl)methyl]cyclobutyl]-4-oxo-quinazolin-3-yl]-N-isopropyl-acetamide] | +++ (>75) | 0.001 to 0.01
CC(C)NC(=O)Cn1c(-c2cccc(Cl)c2)nc2ccc([C@H]3C[C@@H](CN4CCC(C)(O)CC4)C3)cc2c1=O [Example 36, cis-2-[2-(3-Chlorophenyl)-6-[3-[(4-hydroxy-4-methyl-1-piperidyl)methyl]cyclobutyl]-4-oxo-quinazolin-3-yl]-N-isopropyl-acetamide] | +++ (>75) | 0.001 to 0.01
CC(C)NC(=O)Cn1c(-c2cccc(Cl)c2)nc2ccc([C@H]3C[C@@H](CN4CCCCC4)C3)cc2c1=O [Example 2a, cis-2-[2-(3-chlorophenyl)-4-oxo-6-[3-(1-piperidylmethyl)cyclobutyl]quinazolin-3-yl]-N-isopropyl-acetamide] | +++ (>75) | 0.001 to 0.01
CC(C)NC(=O)Cn1c(-c2cccc(Cl)c2)nc2ccc([C@H]3C[C@@H](CN4CCC(F)(F)CC4)C3)cc2c1=O [Example 12, cis-2-[2-(3-Chlorophenyl)-6-[3-[(4,4-difluoro-1-piperidyl)methyl]cyclobutyl]-4-oxo-quinazolin-3-yl]-N-isopropyl-acetamide] | +++ (>75) | 0.001 to 0.01
CC(C)NC(=O)Cn1c(-c2cccc(Cl)c2)nc2ccc([C@H]3C[C@@H](CN4CCSCC4)C3)cc2c1=O [Example 8, cis-2-[2-(3-Chlorophenyl)-4-oxo-6-[3-(thiomorpholinomethyl)cyclobutyl]quinazolin-3-yl]-N-isopropyl-acetamide] | +++ (>75) | < 0.001
CC(C)NC(=O)Cn1c(-c2cccc(Cl)c2)nc2ccc([C@H]3C[C@@H](CN4CCCC4)C3)cc2c1=O [Example 9, cis-2-[2-(3-Chlorophenyl)-4-oxo-6-[3-(pyrrolidin-1-ylmethyl)cyclobutyl]quinazolin-3-yl]-N-isopropyl-acetamide] | +++ (>75) | 0.01 to 0.1
CC(C)NC(=O)Cn1c(-c2cccc(Cl)c2)nc2ccc([C@H]3C[C@@H](CN4CC(C)OC(C)C4)C3)cc2c1=O (relative stereo) [Example 43, cis-2-[2-(3-Chlorophenyl)-6-[3-[(2,6-dimethylmorpholin-4-yl)methyl]cyclobutyl]-4-oxo-quinazolin-3-yl]-N-isopropyl-acetamide] | +++ (>75) | 0.01 to 0.1
CCOC1CCN(C[C@H]2C[C@@H](c3ccc4nc(-c5cccc(Cl)c5)n(CC(=O)NC(C)C)c(=O)c4c3)C2)CC1 [Example 20, cis-2-[2-(3-Chlorophenyl)-6-[3-[(4-ethoxy-1-piperidyl)methyl]cyclobutyl]-4-oxo-quinazolin-3-yl]-N-isopropyl-acetamide] | +++ (>75) | 0.01 to 0.1
CC(C)NC(=O)Cn1c(-c2cccc(Cl)c2)nc2ccc([C@H]3C[C@@H](CN4CC[C@@H](C)C4)C3)cc2c1=O [Example 34, cis-2-[2-(3-Chlorophenyl)-6-[3-[[(3R)-3-methylpyrrolidin-1-yl]methyl]cyclobutyl]-4-oxo-quinazolin-3-yl]-N-isopropyl-acetamide] | +++ (>75) | 0.001 to 0.01
CCCNC(=O)Cn1c(-c2cccc(Cl)c2)nc2ccc([C@H]3C[C@@H](CN4CCCCC4)C3)cc2c1=O [Example 28, cis-2-[2-(3-Chlorophenyl)-4-oxo-6-[3-(1-piperidylmethyl)cyclobutyl]quinazolin-3-yl]-N-propyl-acetamide] | +++ (>75) | 0.01 to 0.1
CC(C)NC(=O)Cn1c(-c2cccc(Cl)c2)nc2ccc([C@H]3C[C@@H](CN4CCC(F)CC4)C3)cc2c1=O [Example 30, cis-2-[2-(3-Chlorophenyl)-6-[3-[(4-fluoro-1-piperidyl)methyl]cyclobutyl]-4-oxo-quinazolin-3-yl]-N-isopropyl-acetamide] | +++ (>75) | 0.001 to 0.01
CC(C)NC(=O)Cn1c(-c2cccc(Cl)c2)nc2ccc(C3CC3CN3CCCCC3)cc2c1=O (stereo not drawn) [Example 4, 2-[2-(3-Chlorophenyl)-4-oxo-6-[2-(1-piperidylmethyl)cyclopropyl]quinazolin-3-yl]-N-isopropyl-acetamide] | +++ (>75) | 0.01 to 0.1
